{
  "source": "patent US11123337B2",
  "about": "“4-methylsulfonyl-substituted piperidine urea compounds” (MYOKARDIA, INC., priority 2015, dated 2021)",
  "target": "bovine cardiac myosin (Bos taurus, UniProt Q9BE39)",
  "sequence (Q9BE39 whole entry)": "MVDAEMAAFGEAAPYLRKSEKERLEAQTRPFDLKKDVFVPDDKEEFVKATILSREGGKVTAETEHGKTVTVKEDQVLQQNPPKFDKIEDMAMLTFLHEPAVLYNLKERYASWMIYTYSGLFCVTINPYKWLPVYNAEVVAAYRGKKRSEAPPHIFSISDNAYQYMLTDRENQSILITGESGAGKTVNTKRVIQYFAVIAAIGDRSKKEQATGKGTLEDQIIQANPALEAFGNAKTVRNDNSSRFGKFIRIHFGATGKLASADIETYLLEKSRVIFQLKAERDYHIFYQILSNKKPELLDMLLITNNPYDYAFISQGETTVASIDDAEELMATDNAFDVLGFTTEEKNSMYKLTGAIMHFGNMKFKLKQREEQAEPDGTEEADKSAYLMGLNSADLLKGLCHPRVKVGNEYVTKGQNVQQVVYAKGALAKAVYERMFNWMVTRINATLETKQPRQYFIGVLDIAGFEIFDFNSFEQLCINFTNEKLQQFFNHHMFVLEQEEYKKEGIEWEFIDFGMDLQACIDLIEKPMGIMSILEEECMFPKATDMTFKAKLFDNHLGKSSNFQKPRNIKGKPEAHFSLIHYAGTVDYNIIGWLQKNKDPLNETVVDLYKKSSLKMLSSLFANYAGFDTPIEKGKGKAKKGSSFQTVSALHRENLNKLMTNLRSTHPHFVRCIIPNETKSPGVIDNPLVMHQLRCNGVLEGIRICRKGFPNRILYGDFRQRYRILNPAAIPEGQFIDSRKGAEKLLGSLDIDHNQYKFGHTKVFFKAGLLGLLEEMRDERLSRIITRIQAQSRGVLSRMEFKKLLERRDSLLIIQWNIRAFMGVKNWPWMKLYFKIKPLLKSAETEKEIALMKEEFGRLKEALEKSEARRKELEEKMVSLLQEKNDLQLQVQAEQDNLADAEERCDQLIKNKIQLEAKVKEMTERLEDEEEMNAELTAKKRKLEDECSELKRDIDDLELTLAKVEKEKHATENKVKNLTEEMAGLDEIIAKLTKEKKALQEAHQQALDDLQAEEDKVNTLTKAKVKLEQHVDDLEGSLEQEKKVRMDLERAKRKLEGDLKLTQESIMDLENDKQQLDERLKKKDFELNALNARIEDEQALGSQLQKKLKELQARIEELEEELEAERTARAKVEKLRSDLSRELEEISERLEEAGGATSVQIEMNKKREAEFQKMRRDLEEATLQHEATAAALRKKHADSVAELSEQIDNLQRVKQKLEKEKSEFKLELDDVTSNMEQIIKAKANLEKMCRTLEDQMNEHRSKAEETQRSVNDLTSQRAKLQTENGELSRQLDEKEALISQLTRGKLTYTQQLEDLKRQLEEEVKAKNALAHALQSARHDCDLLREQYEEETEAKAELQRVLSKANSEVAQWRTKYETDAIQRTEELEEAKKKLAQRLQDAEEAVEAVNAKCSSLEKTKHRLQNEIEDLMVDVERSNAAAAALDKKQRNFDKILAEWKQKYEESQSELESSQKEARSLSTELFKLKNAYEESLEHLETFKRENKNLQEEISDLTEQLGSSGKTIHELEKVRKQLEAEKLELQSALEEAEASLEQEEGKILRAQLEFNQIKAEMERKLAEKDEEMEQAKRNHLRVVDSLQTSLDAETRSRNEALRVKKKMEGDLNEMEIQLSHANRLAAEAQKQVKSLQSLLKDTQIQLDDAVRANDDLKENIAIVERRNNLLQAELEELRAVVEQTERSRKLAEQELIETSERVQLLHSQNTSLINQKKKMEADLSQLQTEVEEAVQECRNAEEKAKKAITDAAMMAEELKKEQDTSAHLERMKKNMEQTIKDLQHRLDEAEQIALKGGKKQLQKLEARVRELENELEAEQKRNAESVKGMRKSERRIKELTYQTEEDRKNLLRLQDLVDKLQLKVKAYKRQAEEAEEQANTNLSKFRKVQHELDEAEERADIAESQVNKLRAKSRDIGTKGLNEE",
  "sequence (P85100 whole entry partner)": "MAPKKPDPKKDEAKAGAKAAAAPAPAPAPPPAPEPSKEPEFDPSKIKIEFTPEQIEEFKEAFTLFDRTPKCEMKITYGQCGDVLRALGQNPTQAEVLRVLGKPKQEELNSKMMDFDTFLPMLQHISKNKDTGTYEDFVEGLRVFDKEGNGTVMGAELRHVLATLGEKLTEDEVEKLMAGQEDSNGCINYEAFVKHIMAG",
  "sequence (Q3SZE5 whole entry partner)": "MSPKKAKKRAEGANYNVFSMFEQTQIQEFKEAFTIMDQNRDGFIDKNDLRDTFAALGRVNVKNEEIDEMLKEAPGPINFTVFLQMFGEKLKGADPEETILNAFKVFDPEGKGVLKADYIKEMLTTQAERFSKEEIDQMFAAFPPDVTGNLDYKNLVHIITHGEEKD",
  "test": "Myosin activation assay (PK/LDH-coupled ATPase, bovine cardiac myofibrils)",
  "format": "biochemical",
  "details": "AC20 = concentration at which total response is increased by twenty percent",
  "summary_of_the_method": "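Values are the concentrations raising the ATPase rate by 20% or 50% over DMSO, from 10-point dose responses fitted with four parameters. Rate is NADH loss at 340 nm via PK/LDH coupling, read 15 min at room temperature, in pH 6.8 PIPES with 50 μM ATP. Bovine cardiac myofibrils were held at pCa ~6 or pCa 10.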",
  "data": [
    {"smiles": "CC(F)(C1CCN(C(=O)Nc2ccon2)CC1)S(=O)(=O)c1ccc(C#N)cc1", "note": "(stereo not drawn) [Compound 283, 4-(1-((4-cyanophenyl)sulfonyl)-1-fluoroethyl)-N-(isoxazol-3-yl)piperidine-1-carboxamide]", "values": [
      {"measurement": "Myosin Activation (AC20)", "result": "++ (++ represents myosin activation value AC20 from 2 μM-5 μM)"}
    ]},
    {"smiles": "C[C@](F)(C1CCN(C(=O)Nc2ccon2)CC1)S(=O)(=O)c1cccc(F)c1", "note": "[Compound 284, (R)-4-(1-fluoro-1-((3-fluorophenyl)sulfonyl)ethyl)-N-(isoxazol-3-yl)piperidine-1-carboxamide]", "values": [
      {"measurement": "Myosin Activation (AC20)", "result": "+++ (+++ represents myosin activation value AC20 < 2 μM)"}
    ]},
    {"smiles": "C[C@@](F)(C1CCN(C(=O)Nc2ccon2)CC1)S(=O)(=O)c1cccc(F)c1", "note": "[Compound 285, (S)-4-(1-fluoro-1-((3-fluorophenyl)sulfonyl)ethyl)-N-(isoxazol-3-yl)piperidine-1-carboxamide]", "values": [
      {"measurement": "Myosin Activation (AC20)", "result": "+ (+ represents myosin activation value AC20 > 5 μM)"}
    ]},
    {"smiles": "C[C@](F)(C1CCN(C(=O)Nc2ccc(CO)nc2)CC1)S(=O)(=O)c1cccc(F)c1", "note": "[Compound 286, (R)-4-(1-fluoro-1-((3-fluorophenyl)sulfonyl)ethyl)-N-(6-(hydroxymethyl)pyridin-3-yl)piperidine-1-carboxamide]", "values": [
      {"measurement": "Myosin Activation (AC20)", "result": "+ (+ represents myosin activation value AC20 > 5 μM)"}
    ]},
    {"smiles": "Cn1cc(S(=O)(=O)[C@@](C)(F)C2CCN(C(=O)Nc3cccnc3)CC2)c(C(F)F)n1", "note": "[Compound 288, (R)-4-(1-((3-(difluoromethyl)-1-methyl-1H-pyrazol-4-yl)sulfonyl)-1-fluoroethyl)-N-(pyridin-3-yl)piperidine-1-carboxamide]", "values": [
      {"measurement": "Myosin Activation (AC20)", "result": "++ (++ represents myosin activation value AC20 from 2 μM-5 μM)"}
    ]},
    {"smiles": "Cn1cc(S(=O)(=O)[C@@](C)(F)C2CCN(C(=O)Nc3cn[nH]c3)CC2)c(C(F)F)n1", "note": "[Compound 289, (R)-4-(1-((3-(difluoromethyl)-1-methyl-1H-pyrazol-4-yl)sulfonyl)-1-fluoroethyl)-N-(1H-pyrazol-4-yl)piperidine-1-carboxamide]", "values": [
      {"measurement": "Myosin Activation (AC20)", "result": "++ (++ represents myosin activation value AC20 from 2 μM-5 μM)"}
    ]},
    {"smiles": "Cn1cc(S(=O)(=O)[C@@](C)(F)C2CCN(C(=O)Nc3cc[nH]n3)CC2)c(C(F)F)n1", "note": "[Compound 290, (R)-4-(1-((3-(difluoromethyl)-1-methyl-1H-pyrazol-4-yl)sulfonyl)-1-fluoroethyl)-N-(1H-pyrazol-3-yl)piperidine-1-carboxamide]", "values": [
      {"measurement": "Myosin Activation (AC20)", "result": "++ (++ represents myosin activation value AC20 from 2 μM-5 μM)"}
    ]},
    {"smiles": "C[C@@](F)(C1CCN(C(=O)Nc2ccc(C#N)nc2)CC1)S(=O)(=O)c1cccc(F)c1", "note": "[Compound 291, (S)-N-(6-cyanopyridin-3-yl)-4-(1-fluoro-1-((3-fluorophenyl)sulfonyl)ethyl)piperidine-1-carboxamide]", "values": [
      {"measurement": "Myosin Activation (AC20)", "result": "+ (+ represents myosin activation value AC20 > 5 μM)"}
    ]},
    {"smiles": "C[C@](F)(C1CCN(C(=O)Nc2ccc(C#N)nc2)CC1)S(=O)(=O)c1cccc(F)c1", "note": "[Compound 292, (R)-N-(6-cyanopyridin-3-yl)-4-(1-fluoro-1-((3-fluorophenyl)sulfonyl)ethyl)piperidine-1-carboxamide]", "values": [
      {"measurement": "Myosin Activation (AC20)", "result": "++ (++ represents myosin activation value AC20 from 2 μM-5 μM)"}
    ]},
    {"smiles": "C[C@](F)(C1CCN(C(=O)Nc2ccnc(C#N)c2)CC1)S(=O)(=O)c1cccc(F)c1", "note": "[Compound 293, (R)-N-(2-cyanopyridin-4-yl)-4-(1-fluoro-1-((3-fluorophenyl)sulfonyl)ethyl)piperidine-1-carboxamide]", "values": [
      {"measurement": "Myosin Activation (AC20)", "result": "+ (+ represents myosin activation value AC20 > 5 μM)"}
    ]},
    {"smiles": "Cc1ccc(NC(=O)N2CCC(C(C)(F)S(=O)(=O)c3cccc(F)c3)CC2)cn1", "note": "(stereo not drawn) [Compound 295, 4-(1-fluoro-1-((3-fluorophenyl)sulfonyl)ethyl)-N-(6-methylpyridin-3-yl)piperidine-1-carboxamide]", "values": [
      {"measurement": "Myosin Activation (AC20)", "result": "+ (+ represents myosin activation value AC20 > 5 μM)"}
    ]},
    {"smiles": "Cn1nc(C(F)(F)F)cc1S(=O)(=O)[C@@](C)(F)C1CCN(C(=O)Nc2ccnc(F)c2)CC1", "note": "[Compound 296, (R)-4-(1-fluoro-1-((1-methyl-3-(trifluoromethyl)-1H-pyrazol-5-yl)sulfonyl)ethyl)-N-(2-fluoropyridin-4-yl)piperidine-1-carboxamide]", "values": [
      {"measurement": "Myosin Activation (AC20)", "result": "+++ (+++ represents myosin activation value AC20 < 2 μM)"}
    ]},
    {"smiles": "Cn1cc(S(=O)(=O)[C@@](C)(F)C2CCN(C(=O)Nc3ccnc(F)c3)CC2)c(C(F)F)n1", "note": "[Compound 297, (R)-4-(1-((3-(difluoromethyl)-1-methyl-1H-pyrazol-4-yl)sulfonyl)-1-fluoroethyl)-N-(2-fluoropyridin-4-yl)piperidine-1-carboxamide]", "values": [
      {"measurement": "Myosin Activation (AC20)", "result": "+++ (+++ represents myosin activation value AC20 < 2 μM)"}
    ]},
    {"smiles": "Cn1cc(S(=O)(=O)[C@@](C)(F)C2CCN(C(=O)Nc3ccc(C#N)nc3)CC2)c(C(F)F)n1", "note": "[Compound 299, (R)-N-(6-cyanopyridin-3-yl)-4-(1-((3-(difluoromethyl)-1-methyl-1H-pyrazol-4-yl)sulfonyl)-1-fluoroethyl)piperidine-1-carboxamide]", "values": [
      {"measurement": "Myosin Activation (AC20)", "result": "+++ (+++ represents myosin activation value AC20 < 2 μM)"}
    ]},
    {"smiles": "Cn1cc(S(=O)(=O)[C@@](C)(F)C2CCN(C(=O)Nc3ccc(C(N)=O)nc3)CC2)c(C(F)F)n1", "note": "[Compound 300, (R)-5-(4-(1-((3-(difluoromethyl)-1-methyl-1H-pyrazol-4-yl)sulfonyl)-1-fluoroethyl)piperidine-1-carboxamido)picolinamide]", "values": [
      {"measurement": "Myosin Activation (AC20)", "result": "++ (++ represents myosin activation value AC20 from 2 μM-5 μM)"}
    ]},
    {"smiles": "C[C@](F)(C1CCN(C(=O)Nc2cnc3c(c2)CNC3=O)CC1)S(=O)(=O)c1cccc(F)c1", "note": "[Compound 301, (R)-4-(1-fluoro-1-((3-fluorophenyl)sulfonyl)ethyl)-N-(7-oxo-6,7-dihydro-5H-pyrrolo[3,4-b]pyridin-3-yl)piperidine-1-carboxamide]", "values": [
      {"measurement": "Myosin Activation (AC20)", "result": "++ (++ represents myosin activation value AC20 from 2 μM-5 μM)"}
    ]},
    {"smiles": "C[C@H](O)c1cc(NC(=O)N2CCC([C@](C)(F)S(=O)(=O)c3cccc(F)c3)CC2)ccn1", "note": "[Compound 302, 4-((R)-1-fluoro-1-((3-fluorophenyl)sulfonyl)ethyl)-N-(2-((S)-1-hydroxyethyl)pyridin-4-yl)piperidine-1-carboxamide]", "values": [
      {"measurement": "Myosin Activation (AC20)", "result": "+ (+ represents myosin activation value AC20 > 5 μM)"}
    ]},
    {"smiles": "C[C@@H](O)c1cc(NC(=O)N2CCC([C@](C)(F)S(=O)(=O)c3cccc(F)c3)CC2)ccn1", "note": "[Compound 303, 4-((R)-1-fluoro-1-((3-fluorophenyl)sulfonyl)ethyl)-N-(2-((R)-1-hydroxyethyl)pyridin-4-yl)piperidine-1-carboxamide]", "values": [
      {"measurement": "Myosin Activation (AC20)", "result": "+ (+ represents myosin activation value AC20 > 5 μM)"}
    ]},
    {"smiles": "C[C@@H](O)c1cc(NC(=O)N2CCC([C@@](C)(F)S(=O)(=O)c3cn(C)nc3C(F)F)CC2)ccn1", "note": "[Compound 304, 4-((S)-1-((3-(difluoromethyl)-1-methyl-1H-pyrazol-4-yl)sulfonyl)-1-fluoroethyl)-N-(2-((R)-1-hydroxyethyl)pyridin-4-yl)piperidine-1-carboxamide]", "values": [
      {"measurement": "Myosin Activation (AC20)", "result": "+ (+ represents myosin activation value AC20 > 5 μM)"}
    ]},
    {"smiles": "[2H]C([2H])([2H])n1cc(S(=O)(=O)[C@](F)(C2CCN(C(=O)Nc3ccon3)CC2)C([2H])([2H])[2H])c(C(F)F)n1", "note": "[Compound 305, (S)-4-(1-((3-(difluoromethyl)-1-(methyl-d3)-1H-pyrazol-4-yl)sulfonyl)-1-fluoroethyl-2,2,2-d3)-N-(isoxazol-3-yl)piperidine-1-carboxamide]", "values": [
      {"measurement": "Myosin Activation (AC20)", "result": "+ (+ represents myosin activation value AC20 > 5 μM)"}
    ]},
    {"smiles": "[2H]C([2H])([2H])n1cc(S(=O)(=O)[C@@](F)(C2CCN(C(=O)Nc3ccon3)CC2)C([2H])([2H])[2H])c(C(F)F)n1", "note": "[Compound 306, (R)-4-(1-((3-(difluoromethyl)-1-(methyl-d3)-1H-pyrazol-4-yl)sulfonyl)-1-fluoroethyl-2,2,2-d3)-N-(isoxazol-3-yl)piperidine-1-carboxamide]", "values": [
      {"measurement": "Myosin Activation (AC20)", "result": "+++ (+++ represents myosin activation value AC20 < 2 μM)"}
    ]},
    {"smiles": "COc1ccc(S(=O)(=O)[C@](C)(F)C2CCN(C(=O)Nc3ccon3)CC2)cn1", "note": "[Compound 307, (S)-4-(1-fluoro-1-((6-methoxypyridin-3-yl)sulfonyl)ethyl)-N-(isoxazol-3-yl)piperidine-1-carboxamide]", "values": [
      {"measurement": "Myosin Activation (AC20)", "result": "+ (+ represents myosin activation value AC20 > 5 μM)"}
    ]},
    {"smiles": "COc1ccc(S(=O)(=O)[C@@](C)(F)C2CCN(C(=O)Nc3ccon3)CC2)cn1", "note": "[Compound 308, (R)-4-(1-fluoro-1-((6-methoxypyridin-3-yl)sulfonyl)ethyl)-N-(isoxazol-3-yl)piperidine-1-carboxamide]", "values": [
      {"measurement": "Myosin Activation (AC20)", "result": "++ (++ represents myosin activation value AC20 from 2 μM-5 μM)"}
    ]},
    {"smiles": "C[C@@](F)(C1CCN(C(=O)Nc2ccon2)CC1)S(=O)(=O)c1ccc(C(F)(F)F)nc1", "note": "[Compound 309, (S)-4-(1-fluoro-1-((6-(trifluoromethyl)pyridin-3-yl)sulfonyl)ethyl)-N-(isoxazol-3-yl)piperidine-1-carboxamide]", "values": [
      {"measurement": "Myosin Activation (AC20)", "result": "+ (+ represents myosin activation value AC20 > 5 μM)"}
    ]},
    {"smiles": "C[C@](F)(C1CCN(C(=O)Nc2ccon2)CC1)S(=O)(=O)c1ccc(C(F)(F)F)nc1", "note": "[Compound 310, (R)-4-(1-fluoro-1-((6-(trifluoromethyl)pyridin-3-yl)sulfonyl)ethyl)-N-(isoxazol-3-yl)piperidine-1-carboxamide]", "values": [
      {"measurement": "Myosin Activation (AC20)", "result": "++ (++ represents myosin activation value AC20 from 2 μM-5 μM)"}
    ]},
    {"smiles": "C[C@@](F)(C1CCN(C(=O)Nc2ccon2)CC1)S(=O)(=O)c1ccc(OC(F)F)nc1", "note": "[Compound 311, (S)-4-(1-((6-(difluoromethoxy)pyridin-3-yl)sulfonyl)-1-fluoroethyl)-N-(isoxazol-3-yl)piperidine-1-carboxamide]", "values": [
      {"measurement": "Myosin Activation (AC20)", "result": "+ (+ represents myosin activation value AC20 > 5 μM)"}
    ]},
    {"smiles": "C[C@](F)(C1CCN(C(=O)Nc2ccon2)CC1)S(=O)(=O)c1ccc(OC(F)F)nc1", "note": "[Compound 312, (R)-4-(1-((6-(difluoromethoxy)pyridin-3-yl)sulfonyl)-1-fluoroethyl)-N-(isoxazol-3-yl)piperidine-1-carboxamide]", "values": [
      {"measurement": "Myosin Activation (AC20)", "result": "+++ (+++ represents myosin activation value AC20 < 2 μM)"}
    ]}
  ]
}
